Reference: ChEMBL document CHEMBL1909294, “Translating clinical findings into knowledge in drug safety evaluation--drug induced liver injury prediction system (DILIps)” (PLoS Comput Biol, 2011)

Legend:
Hepatotoxicity [1] = system: Hepatotoxicity;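 as to HepSE bilirubinemia: bilirubinemia hepatic side effect score drawn from the DILIps training data, a prediction system for drug-induced liver injury; call rule not given here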;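 as to HepSE cholecystitis: Cholecystitis-related hepatic side effect score drawn from the DILIps (drug-induced liver injury prediction) training data set; call rule not given here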;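 as to HepSE cirrhosis: cirrhosis hepatic side effect score taken from the DILIps (drug-induced liver injury prediction) training set; call rule not given here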;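 as to HepSE hepatomegaly: hepatic side effect score for hepatomegaly, taken from the training set of the DILIps drug-induced liver injury prediction system; call rule not given here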;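 as to HepSE jaundice: Jaundice-related hepatic side-effect score drawn from the training data of the DILIps (drug-induced liver injury prediction system); call rule not given here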;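 as to HepSE liver function tests abnormal: hepatic side effect score taken from the DILIps (drug-induced liver injury prediction system) training data, here covering abnormal liver function test findings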
Hepatotoxicity [2] = system: Hepatotoxicity; remark: listed apart in the source;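 as to HepSE bilirubinemia: bilirubinemia hepatic side effect score drawn from the DILIps training data, a prediction system for drug-induced liver injury; call rule not given here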;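 as to HepSE cholecystitis: Cholecystitis-related hepatic side effect score drawn from the DILIps (drug-induced liver injury prediction) training data set; call rule not given here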;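 as to HepSE cirrhosis: cirrhosis hepatic side effect score taken from the DILIps (drug-induced liver injury prediction) training set; call rule not given here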;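 as to HepSE hepatomegaly: hepatic side effect score for hepatomegaly, taken from the training set of the DILIps drug-induced liver injury prediction system; call rule not given here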;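 as to HepSE jaundice: Jaundice-related hepatic side-effect score drawn from the training data of the DILIps (drug-induced liver injury prediction system); call rule not given here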;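 as to HepSE liver function tests abnormal: hepatic side effect score taken from the DILIps (drug-induced liver injury prediction system) training data, here covering abnormal liver function test findings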
Hepatotoxicity [3] = system: Hepatotoxicity; remark: listed apart in the source;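 as to HepSE bilirubinemia: bilirubinemia hepatic side effect score drawn from the DILIps training data, a prediction system for drug-induced liver injury; call rule not given here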;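 as to HepSE cholecystitis: Cholecystitis-related hepatic side effect score drawn from the DILIps (drug-induced liver injury prediction) training data set; call rule not given here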;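 as to HepSE cirrhosis: cirrhosis hepatic side effect score taken from the DILIps (drug-induced liver injury prediction) training set; call rule not given here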;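 as to HepSE hepatomegaly: hepatic side effect score for hepatomegaly, taken from the training set of the DILIps drug-induced liver injury prediction system; call rule not given here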;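 as to HepSE jaundice: Jaundice-related hepatic side-effect score drawn from the training data of the DILIps (drug-induced liver injury prediction system); call rule not given here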;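 as to HepSE liver function tests abnormal: hepatic side effect score taken from the DILIps (drug-induced liver injury prediction system) training data, here covering abnormal liver function test findings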
Hepatotoxicity [4] = system: Hepatotoxicity; remark: listed apart in the source;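 as to HepSE bilirubinemia: bilirubinemia hepatic side effect score drawn from the DILIps training data, a prediction system for drug-induced liver injury; call rule not given here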;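 as to HepSE cholecystitis: Cholecystitis-related hepatic side effect score drawn from the DILIps (drug-induced liver injury prediction) training data set; call rule not given here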;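 as to HepSE cirrhosis: cirrhosis hepatic side effect score taken from the DILIps (drug-induced liver injury prediction) training set; call rule not given here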;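 as to HepSE jaundice: Jaundice-related hepatic side-effect score drawn from the training data of the DILIps (drug-induced liver injury prediction system); call rule not given here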;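 as to HepSE liver function tests abnormal: hepatic side effect score taken from the DILIps (drug-induced liver injury prediction system) training data, here covering abnormal liver function test findings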
Hepatotoxicity [5] = system: Hepatotoxicity; remark: listed apart in the source
Hepatotoxicity [6] = system: Hepatotoxicity; remark: listed apart in the source
Hepatotoxicity [7] = system: Hepatotoxicity; remark: listed apart in the source
Hepatotoxicity [8] = system: Hepatotoxicity; remark: listed apart in the source
Hepatotoxicity [9] = system: Hepatotoxicity; remark: listed apart in the source
Hepatotoxicity [10] = system: Hepatotoxicity; remark: listed apart in the source
Hepatotoxicity [11] = system: Hepatotoxicity; remark: listed apart in the source
Hepatotoxicity [12] = system: Hepatotoxicity; remark: listed apart in the source
Hepatotoxicity [13] = system: Hepatotoxicity; remark: listed apart in the source
Hepatotoxicity [14] = system: Hepatotoxicity; remark: listed apart in the source

| SMILES | HepSE_bilirubinemia (Hepatotoxicity [1]) | HepSE_jaundice (Hepatotoxicity [2]) | HepSE_liver function tests abnormal (Hepatotoxicity [3]) | HepSE_cholecystitis (Hepatotoxicity [4]) | HepSE_cirrhosis (Hepatotoxicity [5]) | HepSE_hepatomegaly (Hepatotoxicity [6]) | HepSE_liver disease (Hepatotoxicity [7]) | HepSE_hepatic failure (Hepatotoxicity [8]) | HepSE_hepatic necrosis (Hepatotoxicity [9]) | HepSE_liver fatty (Hepatotoxicity [10]) | HepSE_Combined Scores (Hepatotoxicity [11]) | HepSE_elevated liver function tests (Hepatotoxicity [12]) | HepSE_cholelithiasis (Hepatotoxicity [13]) | HepSE_hepatitis (Hepatotoxicity [14]) | further results |
| --- | --- | --- | --- | --- | --- | --- | --- | --- | --- | --- | --- | --- | --- | --- | --- |
| CC(C)(C)NC[C@H](O)COc1cccc2c1CCCC2=O [LEVOBUNOLOL] | 0 | 0 | 0 | 0 | 0 | 0 | 0 | 0 | 0 | 0 | 0 | 0 | 0 | 0 |  |
| COc1cc2nc(N3CCN(C(=O)C4COc5ccccc5O4)CC3)nc(N)c2cc1OC (configuration not stated) [DOXAZOSIN] | 0 | 1 | 1 | 0 | 0 | 0 | 0 | 0 | 0 | 0 | 4 | 0 | 1 | 1 |  |
| O=C1NC(c2ccccc2)(c2ccccc2)C(=O)N1COP(=O)(O)O [FOSPHENYTOIN] | 0 | 0 | 1 | 0 | 0 | 0 | 0 | 0 | 0 | 0 | 1 | 0 | 0 | 0 |  |
| Cc1ncc2n1-c1ccc(Cl)cc1C(c1ccccc1F)=NC2 [MIDAZOLAM] | 0 | 0 | 0 | 0 | 0 | 0 | 0 | 0 | 0 | 0 | 0 | 0 | 0 | 0 |  |
| Cc1nnc(SCC2=C(C(=O)O)N3C(=O)[C@@H](NC(=O)Cn4cnnn4)[C@H]3SC2)s1 [CEFAZOLIN] | 0 | 0 | 0 | 0 | 0 | 0 | 0 | 0 | 0 | 0 | 1 | 0 | 0 | 1 |  |
| NC[C@H]1O[C@H](O[C@H]2[C@H](O)[C@@H](O[C@H]3O[C@H](CO)[C@@H](O)[C@H](N)[C@H]3O)[C@H](N)C[C@@H]2N)[C@H](N)C[C@@H]1O [TOBRAMYCIN] | 0 | 0 | 0 | 0 | 0 | 0 | 0 | 0 | 0 | 0 | 0 | 0 | 0 | 0 |  |
| Cc1ccc(N(CC2=NCCN2)c2cccc(O)c2)cc1 [PHENTOLAMINE] | 0 | 0 | 0 | 0 | 0 | 0 | 0 | 0 | 0 | 0 | 0 | 0 | 0 | 0 |  |
| Cc1ccc(S(=O)(=O)NC(=O)NN2CCCCCC2)cc1 [TOLAZAMIDE] | 0 | 1 | 0 | 0 | 0 | 0 | 0 | 0 | 0 | 0 | 1 | 0 | 0 | 0 |  |
| N=C(N)NC(=O)Cc1c(Cl)cccc1Cl [GUANFACINE] | 0 | 0 | 1 | 0 | 0 | 0 | 0 | 0 | 0 | 0 | 1 | 0 | 0 | 0 |  |
| CCC1(c2ccccc2)C(=O)NCNC1=O [PRIMIDONE] | 0 | 0 | 0 | 0 | 0 | 0 | 0 | 0 | 0 | 0 | 0 | 0 | 0 | 0 |  |
| CNCCc1ccccn1 [BETAHISTINE] | 0 | 0 | 0 | 0 | 0 | 0 | 0 | 0 | 0 | 0 | 0 | 0 | 0 | 0 |  |
| OC(c1cc(C(F)(F)F)nc2c(C(F)(F)F)cccc12)C1CCCCN1 (configuration not stated) [MEFLOQUINE] | 0 | 0 | 0 | 0 | 0 | 0 | 0 | 0 | 0 | 0 | 0 | 0 | 0 | 0 |  |
| Cc1ccc(C(=O)c2cc(O)c(O)c([N+](=O)[O-])c2)cc1 [TOLCAPONE] |  |  |  |  |  |  |  |  |  |  |  |  |  |  | HepSE_bilirubinemia (Hepatotoxicity [1]; Liver): 0; HepSE_jaundice (Hepatotoxicity [2]; Liver): 0; HepSE_liver function tests abnormal (Hepatotoxicity [3]; Liver): 0; HepSE_cholecystitis (Hepatotoxicity [4]; Liver): 1; HepSE_cirrhosis (Hepatotoxicity [5]; Liver): 0; HepSE_hepatomegaly (Hepatotoxicity [6]; Liver): 0; HepSE_liver disease (Hepatotoxicity [7]; Liver): 0; HepSE_hepatic failure (Hepatotoxicity [8]; Liver): 0; HepSE_hepatic necrosis (Hepatotoxicity [9]; Liver): 0; HepSE_liver fatty (Hepatotoxicity [10]; Liver): 0; HepSE_Combined Scores (Hepatotoxicity [11]; Liver): 2; HepSE_elevated liver function tests (Hepatotoxicity [12]; Liver): 0; HepSE_cholelithiasis (Hepatotoxicity [13]; Liver): 1; HepSE_hepatitis (Hepatotoxicity [14]; Liver): 0 |
